Measurements as given in article PMC10035904, “Synthesis of novel sulphamethoxazole derivatives and exploration of their anticancer and antimicrobial properties” (PLOS ONE, 2023).
Values after ≈ are worked out from the molar mass of the structure shown.

Assays:
[1] = system: Staphylococcus aureus ATCC 25923; assay: Serial broth dilution in liquid medium, S. aureus; assay type: cell-based; conditions: Mueller-Hinton broth, 24 hours; result in words
Procedure: Antibacterial and antifungal susceptibility to the compound 16b was tested using a serial broth dilution technique in Mueller-Hinton broth II (BBL, Cockeysville, USA), as described elsewhere. All procedures were done in aseptic conditions. Standard bacterial and fungal cultures were used: Staphylococcus aureus ATCC 25923, Staphylococcus epidermidis ATCC 12228, Escherichia coli ATCC 25922, Enterococcus faecalis ATCC 29212, Klebsiella pneumoniae ATCC 33499, Pseudomonas aeruginosa ATCC 27853, Proteus mirabilis ATCC 12459, Bacillus cereus ATCC 8035, and Candida albicans ATCC 60193. Standard cultures of nonsporic bacteria S. aureus, S. epidermidis, E. coli, E. faecalis, K. pneumoniae, P. aeruginosa and P. mirabilis were cultivated for 20–24 hours at 37°C in Mueller-Hinton Agar (BBL, Cockeysville, USA). A bacterial suspension was prepared from cultivated bacterial cultures in physiological solution according to turbidity standard 0.5 McFarland. Standard culture of sporic bacteria B. cereus was cultivated for 7 days at 37°C in Mueller-Hinton II Agar. […] Then the absorbance was measured at 600 nm using a multi-detection microplate reader. […]

[2] = system: HF, PPC-1, and CaKi-1 cells; assay: MTT cell viability screen at 100 μM (cell line not given); assay type: cell-based, human; conditions: 72 h, cell line not stated
Procedure: The effect of synthesized compounds on cell viability was studied using 3-(4,5-dimethylthiazol-2-yl)-2,5-diphenyltetrazolium bromide (MTT; Sigma-Aldrich Co., St Louis, MO, USA) assay, as described elsewhere. Briefly, HF, PPC-1, and CaKi-1 cells were seeded in 96-well plates (Corning) in triplicates at a volume of 100 μL at a concentration of 4 × 10^3 cells/well. After 24 h of incubation, the cells were treated with 100 μM of tested compounds. After 72 h, the MTT reagent (at 0.5 mg/mL concentration) has been added to the wells, and cells were incubated for 4 h. Then the medium was aspirated, and the formed purple crystals were dissolved in 100 μL DMSO (Sigma-Aldrich Co.). The absorbance was measured at 570 and 630 nm using a multi-detection microplate reader. The compound effect on cell viability was calculated using a formula (1): Relativecellviability%=A−A0/ANC−A0 (1) Where: […]

[3] = system: Pseudomonas aeruginosa ATCC 27853; assay: Serial dilution on solid agar, P. aeruginosa; assay type: cell-based; conditions: ATCC27853, solid Mueller-Hinton agar, 24 hours
Procedure: (§1) Antimicrobial activity of compound 16b on solid agar was tested using the same microbial cultures, and the same suspension preparation procedure, as described in above section. All procedures were done in aseptic conditions.
(§2) Mueller-Hinton agar was boiled and kept at to 37 °C during the whole procedure. Compound 16b solution was prepared in DMSO right before experiment. The Agar was mixed with compound solution at different ratios to make the final compound concentrations of 1 mM, 400 μM, 200 μM and 100 μM. Then 10 ml of prepared solution was poured into sterile Petri dishes (85 mm in diameter) and kept in aseptic conditions while the agar solidified. The agar with 0.5% of DMSO served as a negative control. With the help of loop standard microbial cultures by 0.1 ml were poured on the surface of prepared agar with investigative compound. Then Petri dishes were kept for 24 hours in thermostatic conditions.
(§3) The minimal dilution, i.e. the lowest concentration in μg/mL of the investigative and comparison compounds that inhibited visible growth of microorganisms was the minimal inhibitory concentration (MIC).

[4] = system: Human foreskin fibroblasts (HF) CRL-4001; assay: MTT cell viability assay, fibroblasts HF; assay type: cell-based; conditions: Fibroblast, 72 hours of incubation, n = 3, read-out: EC50 against HF
Procedure: The human clear cell renal cell carcinoma line (CaKi-1) was obtained from American Type Culture Collection (ATCC, Manassas, VA). The human prostate carcinoma cell line PPC-1 was originally obtained from ATCC and kindly provided by Prof. Tambet Teesalu (University of Tartu, Estonia). Human foreskin fibroblasts (HF) CRL-4001 were originally obtained from ATCC and kindly provided by Prof. Helder Santos (University of Helsinki, Finland). Cells were cultured in Dulbecco’s Modified Eagle’s GlutaMAX medium (Gibco (Carlsbad, CA, USA) supplemented with 10,000 U/mL penicillin, 10 mg/mL streptomycin (Gibco), and 10% fetal bovine serum (Gibco). During cell passaging, Tryple Express reagent (Gibco) was used for cell detachment. Cell cultures were grown at 37°C in a humidified atmosphere containing 5% CO2. They were used until the passage of 20.
The effect of synthesized compounds on cell viability was studied using 3-(4,5-dimethylthiazol-2-yl)-2,5-diphenyltetrazolium bromide (MTT; Sigma-Aldrich Co., St Louis, MO, USA) assay, as described elsewhere. […] The absorbance was measured at 570 and 630 nm using a multi-detection microplate reader. The compound effect on cell viability was calculated using a formula (1): Relativecellviability%=A−A0/ANC−A0 (1) Where: […]

[5] = system: Bacillus cereus ATCC 8035; assay: Serial dilution on solid agar, B. cereus; assay type: cell-based; conditions: ATCC8035, solid Mueller-Hinton agar, 24 hours
Procedure: as §1, §2, §3

In the case of Cc1cc(NS(=O)(=O)c2ccc(NCCC(=O)NN=Cc3ccc([N+](=O)[O-])o3)cc2)no1 [Compound 16b, N-(5-methylisoxazol-3-yl)-4-((3-(2-((5-nitrofuran-2-yl)methylene)hydrazineyl)-3-oxopropyl)amino)-benzenesulfonamide], the “sensitivity of S. aureus in liquid medium” value [1] is reported as “most sensitive”, the “reduced cell viability up to about” value [2] is reported as “about 40%” and the MIC [3] is reported as > 1000 µM. For the same molecule, the EC50 [4] was 9.5 ± 2.7 µM and the MIC [5] was 400 µM (≈ 185 µg/mL).
